Results published in patent publication US5292742A, “Angiotensin II receptor blocking 2,3,6 substituted quinazolinones” (American Cyanamid Company, priority 1993, dated 1994).
“And” between values parts separate entries of the source, which are not always exact repeats. Identical values can stand only once.

Test system: angiotensin II (AII) vasopressor response
Assay: AII challenge: inhibition of angiotensin II vasopressor response in conscious spontaneously hypertensive rats
Assay type: in vivo, rat (Okamoto-Aoki SHR)
Conditions: 3 mg/kg IV; for % Inhibition (angiotensin blockage) of AII vasopressor response / Average Change (increase in systolic blood pressure after AII): SHR n = 2; for Change (increase in systolic blood pressure after AII), individual rat / Response After AII (systolic blood pressure), individual rat / Control Before AII (systolic blood pressure), individual rat: individual SHR
Text: By administering a compound of this invention to a rat, and then challenging with angiotensin II, a blockage of the vasopressor response is realized.
Conscious Male Okamoto-Aoki SHR, 16-20 weeks old, weighing approximately 330 g are purchased from Charles River Labs (Wilmington, Mass.). Conscious rats are restrained in a supine position with elastic tape. The area at the base of the tail is locally anesthetized by subcutaneous infiltration with 2% procaine. The ventral caudal artery and vein are isolated, and a cannula made of polyethylene (PE) 10-20 tubing (fused together by heat) is passed into the lower abdominal aorta and vena cava, respectively. The cannula is secured, heparinized (1,000 I.U./ml), sealed and the wound is closed. The animals are placed in plastio restraininq cages in an upright position. The cannula is attached to a Statham P23Db pressure transducer, and pulsatile blood pressure is recorded to 10-15 minutes with a Gould Brush recorder. (Chan et al., (Drug Development Res., 18:75-94, 1989).
Angiotensin II (human sequence, Sigma Chem. Co., St. Louis, Mo.) of 0.05 and 0.1 mcg/kg i.v. is injected into all rats (predosing response). Then a test compound, vehicle or a known angiotensin II antagonist is administered i.v., i.p. or orally to each set of rats. The two doses of angiotensin II are given to each rat again at 30, 60, 90, 120, 180, 240 and 300 minutes post dosing the compound or vehicle. The vasopressor response of angiotensin II is measured for the increase in systolic blood pressure in mmHg. The percentage of antagonism or blockade of the vasopressor response of angiotensin II by a compound is calculated using the vasopressor response (increase in systolic blood pressure) of angiotensin II of each rat predosing the compound as 100%. A compound is considered active if at 30 mg/kg i.v. it antagonized at least 50% of the response.

[1] = AII 0.05 mcg/kg IV, 30 min post dose
[2] = AII 0.05 mcg/kg IV, 60 min post dose
[3] = AII 0.05 mcg/kg IV, 90 min post dose
[4] = AII 0.05 mcg/kg IV, 120 min post dose
[5] = AII 0.05 mcg/kg IV, 180 min post dose
[6] = AII 0.05 mcg/kg IV, 240 min post dose
[7] = AII 0.05 mcg/kg IV, 300 min post dose
[8] = AII 0.1 mcg/kg IV, 30 min post dose
[9] = AII 0.1 mcg/kg IV, 60 min post dose
[10] = AII 0.1 mcg/kg IV, 90 min post dose
[11] = AII 0.1 mcg/kg IV, 120 min post dose
[12] = AII 0.1 mcg/kg IV, 180 min post dose
[13] = AII 0.1 mcg/kg IV, 240 min post dose
[14] = AII 0.1 mcg/kg IV, 300 min post dose

CCCCc1nc2ccc(C3=NN4CCCCC4C3)cc2c(=O)n1Cc1ccc(-c2ccccc2-c2nnn[nH]2)cc1 (stereo not shown) [Example 11]
% Inhibition (angiotensin blockage) of AII vasopressor response [1]: 82%
Average Change (increase in systolic blood pressure after AII) [1]: 7.5 mmHg
Change (increase in systolic blood pressure after AII), individual rat [1]: 10 mmHg and 5 mmHg
% Inhibition (angiotensin blockage) of AII vasopressor response [2]: 59%
Average Change (increase in systolic blood pressure after AII) [2]: 17.5 mmHg
Change (increase in systolic blood pressure after AII), individual rat [2]: 20 mmHg and 15 mmHg
% Inhibition (angiotensin blockage) of AII vasopressor response [3]: 65%
Average Change (increase in systolic blood pressure after AII) [3]: 15 mmHg
Change (increase in systolic blood pressure after AII), individual rat [3]: 15 mmHg
% Inhibition (angiotensin blockage) of AII vasopressor response [4]: 59%
Average Change (increase in systolic blood pressure after AII) [4]: 17.5 mmHg
Change (increase in systolic blood pressure after AII), individual rat [4]: 20 mmHg and 15 mmHg
% Inhibition (angiotensin blockage) of AII vasopressor response [5]: 59%
Average Change (increase in systolic blood pressure after AII) [5]: 17.5 mmHg
Change (increase in systolic blood pressure after AII), individual rat [5]: 20 mmHg and 15 mmHg
% Inhibition (angiotensin blockage) of AII vasopressor response [6]: 53%
Average Change (increase in systolic blood pressure after AII) [6]: 20 mmHg
Change (increase in systolic blood pressure after AII), individual rat [6]: 25 mmHg and 15 mmHg
% Inhibition (angiotensin blockage) of AII vasopressor response [7]: 41%
Average Change (increase in systolic blood pressure after AII) [7]: 25 mmHg
Change (increase in systolic blood pressure after AII), individual rat [7]: 25 mmHg
% Inhibition (angiotensin blockage) of AII vasopressor response [8]: 63%
Average Change (increase in systolic blood pressure after AII) [8]: 17.5 mmHg
Change (increase in systolic blood pressure after AII), individual rat [8]: 20 mmHg and 15 mmHg
% Inhibition (angiotensin blockage) of AII vasopressor response [9]: 42%
Average Change (increase in systolic blood pressure after AII) [9]: 27.5 mmHg
Change (increase in systolic blood pressure after AII), individual rat [9]: 30 mmHg and 25 mmHg
% Inhibition (angiotensin blockage) of AII vasopressor response [10]: 37%
Average Change (increase in systolic blood pressure after AII) [10]: 30 mmHg
Change (increase in systolic blood pressure after AII), individual rat [10]: 30 mmHg
% Inhibition (angiotensin blockage) of AII vasopressor response [11]: 42%
Average Change (increase in systolic blood pressure after AII) [11]: 27.5 mmHg
Change (increase in systolic blood pressure after AII), individual rat [11]: 30 mmHg and 25 mmHg
% Inhibition (angiotensin blockage) of AII vasopressor response [12]: 37%
Average Change (increase in systolic blood pressure after AII) [12]: 30 mmHg
Change (increase in systolic blood pressure after AII), individual rat [12]: 25 mmHg and 35 mmHg
% Inhibition (angiotensin blockage) of AII vasopressor response [13]: 47%
Average Change (increase in systolic blood pressure after AII) [13]: 25 mmHg
Change (increase in systolic blood pressure after AII), individual rat [13]: 20 mmHg and 30 mmHg
% Inhibition (angiotensin blockage) of AII vasopressor response [14]: 42%
Average Change (increase in systolic blood pressure after AII) [14]: 27.5 mmHg
Change (increase in systolic blood pressure after AII), individual rat [14]: 20 mmHg and 35 mmHg
Response After AII (systolic blood pressure), individual rat (after AII 0.05 mcg/kg IV, 30 min post dose): 240 mmHg and 225 mmHg
Response After AII (systolic blood pressure), individual rat (after AII 0.05 mcg/kg IV, 60 min post dose): 230 mmHg
Response After AII (systolic blood pressure), individual rat (after AII 0.05 mcg/kg IV, 90 min post dose): 215 mmHg and 225 mmHg
Response After AII (systolic blood pressure), individual rat (after AII 0.05 mcg/kg IV, 120 min post dose): 225 mmHg
Response After AII (systolic blood pressure), individual rat (after AII 0.05 mcg/kg IV, 180 min post dose): 230 mmHg and 225 mmHg
Response After AII (systolic blood pressure), individual rat (after AII 0.05 mcg/kg IV, 240 min post dose): 235 mmHg and 220 mmHg
Response After AII (systolic blood pressure), individual rat (after AII 0.05 mcg/kg IV, 300 min post dose): 240 mmHg and 230 mmHg
Response After AII (systolic blood pressure), individual rat (after AII 0.1 mcg/kg IV, 30 min post dose): 245 mmHg and 240 mmHg
Response After AII (systolic blood pressure), individual rat (after AII 0.1 mcg/kg IV, 60 min post dose): 230 mmHg and 250 mmHg
Response After AII (systolic blood pressure), individual rat (after AII 0.1 mcg/kg IV, 90 min post dose): 235 mmHg and 240 mmHg
Response After AII (systolic blood pressure), individual rat (after AII 0.1 mcg/kg IV, 120 min post dose): 230 mmHg and 235 mmHg
Response After AII (systolic blood pressure), individual rat (after AII 0.1 mcg/kg IV, 180 min post dose): 240 mmHg and 250 mmHg
Response After AII (systolic blood pressure), individual rat (after AII 0.1 mcg/kg IV, 240 min post dose): 245 mmHg and 240 mmHg
Response After AII (systolic blood pressure), individual rat (after AII 0.1 mcg/kg IV, 300 min post dose): 245 mmHg
Control Before AII (systolic blood pressure), individual rat (before AII 0.05 mcg/kg IV, 30 min post dose): 230 mmHg and 220 mmHg
Control Before AII (systolic blood pressure), individual rat (before AII 0.05 mcg/kg IV, 60 min post dose): 210 mmHg and 215 mmHg
Control Before AII (systolic blood pressure), individual rat (before AII 0.05 mcg/kg IV, 90 min post dose): 200 mmHg and 210 mmHg
Control Before AII (systolic blood pressure), individual rat (before AII 0.05 mcg/kg IV, 120 min post dose): 205 mmHg and 210 mmHg
Control Before AII (systolic blood pressure), individual rat (before AII 0.05 mcg/kg IV, 180 min post dose): 210 mmHg
Control Before AII (systolic blood pressure), individual rat (before AII 0.05 mcg/kg IV, 240 min post dose): 210 mmHg and 205 mmHg
Control Before AII (systolic blood pressure), individual rat (before AII 0.05 mcg/kg IV, 300 min post dose): 215 mmHg and 205 mmHg
Control Before AII (systolic blood pressure), individual rat (before AII 0.1 mcg/kg IV, 30 min post dose): 225 mmHg
Control Before AII (systolic blood pressure), individual rat (before AII 0.1 mcg/kg IV, 60 min post dose): 200 mmHg and 225 mmHg
Control Before AII (systolic blood pressure), individual rat (before AII 0.1 mcg/kg IV, 90 min post dose): 205 mmHg and 210 mmHg
Control Before AII (systolic blood pressure), individual rat (before AII 0.1 mcg/kg IV, 120 min post dose): 200 mmHg and 210 mmHg
Control Before AII (systolic blood pressure), individual rat (before AII 0.1 mcg/kg IV, 180 min post dose): 215 mmHg
Control Before AII (systolic blood pressure), individual rat (before AII 0.1 mcg/kg IV, 240 min post dose): 225 mmHg and 210 mmHg
Control Before AII (systolic blood pressure), individual rat (before AII 0.1 mcg/kg IV, 300 min post dose): 225 mmHg and 210 mmHg
